Values of other authors in patent US6905813B2, “Processing agent for silver halide color photosensitive material and processing method thereof” (Chugai Photo Chemical Co., Ltd., priority 2001, dated 2005).
Like-named read-outs stand apart in the source and are kept apart here.

[1] = Table 1, additives of Example 1
[2] = Table 3, additives of Example 2
[3] = Table 7, additives of Example 4
[4] = Table 5, additives of Example 3

| pKa [1] | pKa [2] | pKa [3] | SMILES | pKa [4] |
| --- | --- | --- | --- | --- |
| 8.74 | 8.74 | 8.74 | CC(N)CCN (centres unmarked) [1,3-diaminobutane] | – |
| 9.44 | 9.44 | 9.44 | NCCCCN [1,4-diaminobutane] | – |
| – | – | – | Nc1ccccn1 [2-aminopyridine] | 6.79 |

| SMILES | pKa [1] | pKa [2] | pKa [3] | pKa [4] |
| --- | --- | --- | --- | --- |
| O=S([O-])[O-].[Na+].[Na+] [Sodium sulfite] | 7.19 | 7.19 | 7.19 | 7.19 |
